Here are results for eight molecules from patent US5143918A, “Halomacrolides and derivatives having immunosuppressive activity” (Merck & Co., Inc., priority 1991, dated 1992).

The subject of one assay is T lymphocytes (T-cells). Put plainly: T-Cell Proliferation Assay (tritiated thymidine uptake). In kind it is cell-based, C57B1/6 mice. The settings on record: mouse spleen T lymphocytes, ionomycin 250 ng/ml and PMA 10 ng/ml, 44 h culture + 4 h tritiated thymidine, read-out: IC50 (concentration of compound required to inhibit tritiated thymidine uptake / proliferation of T-cells by 50%). As for the experimental part: T-Cell Proliferation Assay
The compounds to be assayed were dissolved in absolute ethanol at 1 mg/ml.
Spleens from C57B1/6 mice were taken under sterile conditions and gently dissociated in ice-cold RPMI 1640 culture medium (GIBC), Grand Island, N.Y.) supplemented with 10% heat-inactivated fetal calf serum (GIBO)). Cells were pelleted by centrifugation at 1500 rpm for 8 minutes. Contaminating red cells were removed by treating the pellet with ammonium chloride lysing buffer (GIBO)) for 2 minutes at 4° C. Cold medium was added and cells were again centrifuged at 1500 rpm for 8 minutes. T lymphocytes were then isolated by separation of the cell suspension on nylon wool columns as follows: Nylon wool columns were prepared by packing approximately 4 grams of washed and dried nylon wool into 20 ml plastic syringes. The columns were sterilized by autoclaving at […]. for 30 minutes. Nylon wool columns were wetted with warm (37° C.) culture medium and rinsed with the same medium. Washed spleen cells resuspened in warm medium were slowly applied to the nylon wool. The columns were then incubated in an upright position at 37° C. for 1 hour. Non-adherent T lymphocytes were eluted from the columns with warm culture medium and the cell suspensions were spun as above.
Purified T lymphocytes were resuspended at 2.5×10^5 cells/ml in complete culture medium composed of RPMI 1640 medium with 10% heat-inactivated fetal calf serum, […], 1 mM sodium pyruvate, 2×10^-5 M 2-mercaptoethanol and 50 μg/ml gentamycin. Ionomycin was added at 250 ng/ml and PMA at 10 ng/ml. The cell suspension was immediately distributed into 96 well flat-bottom microculture plates (Costar) at 200 μl/well. The various dilutions of the compound to be tested were then added in triplicate wells at 20 ul/well. The compound 17-allyl-1,14-dihydroxy-12-[2'-(4"-hydroxy-3"-methoxycyclohexyl)-1'-methylvinyl]-23,25-dimethoxy-13,19,21,27-tetramethyl-11,28-dioxa-4-azatricyclo[22.3.1.0^4,9 ]octacos-18-ene-2,3,10,16-tetraone was used as a standard. The culture plates were then incubated at 37° C. in a humidified atmosphere of 5% CO2 -95% air for 44 hours. The proliferation of T lymphocytes was assessed by measurement of tritiated thymidine incorporation. After 44 hours of culturing, the cells were pulse-labelled with 2 μCi/well of tritiated thymidine (NEN, Cambridge, Mass.). After another 4 hours of incubation, cultures were harvested on glass fiber filters using a multiple sample harvester. Radio activity of filter discs corresponding to individual wells was measured by standard liquid scintillation counting methods (Betacounter). Mean counts per minute of replicate wells were calculated and the results expressed as concentration of compound required to inhibit tritiated thymidine uptake of T-cells by 50%.
A selection of compounds were tested according to the previous procedure. The concentration of compound required to inhibit the proliferation of T-cells by 50% was measured, and the results were as follows: […]

A further assay relates to in vitro immune systems. As to conditions: versus cyclosporin; J. Antibiotics 1987, 40, 1256; cited from earlier work.

Like-named read-outs stand apart in the source and are kept apart here.

For the molecule `CCC1C=C(C)CC(C)CC(OC)C2OC(O)(C(=O)C(=O)N3CCCCC3C(=O)OC(C(C)=CC3CCC(F)C(OC)C3)C(C)C(O)CC1=O)C(C)CC2OC` (centres unmarked) [Example 62, 17-Ethyl-1,14-dihydroxy-12-[2'-(4"-fluoro-3"-methoxycyclohexyl)-1'-methylvinyl]-23,25-dimethoxy-13,19,21,27-tetramethyl-11,28-dioxa-4-azatricyclo-[22.3.1.0^4,9]octacos-18-ene-2,3,10,16-tetraone], the IC50 in the assay with T lymphocytes (T-cells) (T-cell) is under 1000 nM. Regarding `CCC1C=C(C)CC(C)CC(OC)C2OC(O)(C(=O)C(=O)N3CCCCC3C(=O)OC(C(C)=CC3CCC(O)C(Br)C3)C(C)CCC1=O)C(C)CC2OC` (centres unmarked) [Example 89, 17-Ethyl-1-hydroxy-12-[2'-(3"-bromo-4"-hydroxycyclohexyl)-1'-methylvinyl]-23,25-dimethoxy-13,19,21,27-tetramethyl-11,28-dioxa-4-azatricyclo[22.3.1.0^4,9]octacos-18-ene-2,3,10,16-tetraone], in the assay on T lymphocytes (T-cells) (T-cell), the IC50 is under 1000 nM. On the same count and under the same terms, the figure for `CCC1C=C(C)CC(C)CC(OC)C2OC(O)(C(=O)C(=O)N3CCCCC3C(=O)OC(C(C)=CC3CCC(Br)C(OC)C3)C(C)C(O)CC1=O)C(C)CC2OC` (stereo not drawn) [Example 56, 17-Ethyl-1,14-dihydroxy-12-[2'-(4"-beta-bromo-3"-methoxycyclohexyl)-1'-methylvinyl]-23,25-dimethoxy-13,19,21,27-tetramethyl-11,28-dioxa-4-azatricyclo[22.3.1.0^4,9]octacos-18-ene-2,3,10,16-tetraone] is under 1000 nM. As for `CCC1C=C(C)CC(C)CC(OC)C2OC(O)(C(=O)C(=O)N3CCCCC3C(=O)OC(C(C)=CC3CCC(I)C(OC)C3)C(C)C(O)CC1=O)C(C)CC2OC` (stereo not drawn) [Example 59, 17-Ethyl-1,14-dihydroxy-12-[2'-(4"-beta-iodo-3"-methoxycyclohexyl)-1'-methylvinyl]-23,25-dimethoxy-13,19,21,27-tetramethyl-11,28-dioxa-4-azatricyclo-[22.3.1.0^4,9]octacos-18-ene-2,3,10,16-tetraone], in the assay on T lymphocytes (T-cells), the IC50 was under 1000 nM. Consider `C=CCC1C=C(C)CC(C)CC(OC)C2OC(O)(C(=O)C(=O)N3CCCCC3C(=O)OC(C(C)=CC3CCC(O)C(OC)C3)C(C)C(O)CC1=O)C(C)CC2OC` (centres unmarked) [FR-900506, 17-allyl-1,14-dihydroxy-12-[2'-(4"-hydroxy-3"-methoxycyclohexyl)-1'-methylvinyl]-23,25-dimethoxy-13,19,21,27-tetramethyl-11,28-dioxa-4-azatricyclo-[22.3.1.0^4,9]octacos-18-ene-2,3,10,16-tetraone], for which the “times more effective than cyclosporin in the suppression of in vitro immune systems” value in the assay with in vitro immune systems is 100 times. For “17-Ethyl-1-hydroxy-12-[2'-(3"-chloro-4"-hydroxycyclohexyl)-1'-methylvinyl]- 23,25-dimethoxy-13,19,21,27-tetramethyl-11,28-dioxa-4-azatricyclo[22.3.1.0^4,9 ]octacos-18-ene-2,3,10,16-tetraone [Example 87]”, the IC50 in the assay on T lymphocytes (T-cells) is under 1000 nM. As for `CCC1C=C(C)CC(C)CC(OC)C2OC(O)(C(=O)C(=O)N3CCCCC3C(=O)OC(C(C)=CC3CCC(Cl)C(OC)C3)C(C)CCC1=O)C(C)CC2OC` (stereo not drawn) [Example 40, 17-Ethyl-1-hydroxy-12-[2'-(4"-beta-chloro-3"-methoxycyclohexyl)-1'-methylvinyl]-23,25-dimethoxy-13,19,21,27-tetramethyl-11,28-dioxa-4-azatricyclo-[22.3.1.0^4,9]octacos-18-ene-2,3,10,16-tetraone], the IC50 in the assay with T lymphocytes (T-cells) (T-cell) was under 1000 nM.

With `CCC1C=C(C)CC(C)CC(OC)C2OC(O)(C(=O)C(=O)N3CCCCC3C(=O)OC(C(C)=CC3CCC(Cl)C(OC)C3)C(C)C(O)CC1=O)C(C)CC2OC` (stereo not drawn) [Example 53, 17-Ethyl-1,14-dihydroxy-12-[2'-(4"-beta-chloro-3"-methoxycyclohexyl)-1'-methylvinyl]-23,25-dimethoxy-13,19,21,27-tetramethyl-11,28-dioxa-4-azatricyclo[22.3.1.0^4,9]octacos-18-ene-2,3,10,16-tetraone], the IC50 in the assay with T lymphocytes (T-cells) (T-cell) is under 1000 nM.
